Test results from US20020048572A1, “Treatment of hypertriglyceridemia and other conditions using LXR modulators” (priority 2000, published 2002).
“Also recorded” adds a separate entry of the source.

Columns and labels:
HepG2 cells [1] = experiment: Northern blot analysis of HepG2 cells treated with LXRα ligand, with or without cyclohexamide; format: cell-based
Protocol: HepG2 cells were treated with 24,25-epoxycholesterol in the presence or absence of 50 μg/ml cyclohexamide in DMEM F12 media supplemented with 10% lipid-free serum for 18 hours.
Total RNA was then prepared using the TRIzol® method (Chomczynski and Saachi (1987) Anal. Biochem. 162:156). Electrophoresis and Northern blot analysis were performed using the NorthernMax™ system (Ambion). Ribonucleotide probes were used to identify the RNA transcripts.

[2] = system: HepG2, 293, and CaCO2 cells; experiment: Northern blot analysis of three cell lines treated with oxysterols in presence of cyclohexamide; format: cell-based; details: 30 μM, 50 μg/ml cyclohexamide, 18 hours
Protocol: To ascertain whether or not the 24,25-epoxycholesterol-mediated activation of SREBP-1 expression is cell-specific, three cell lines were tested. HepG2, 293, and CaCO2 cells were treated with either DMSO, 30 μM of 24,25-epoxycholesterol, 30 μM of 22(R)-hydroxycholesterol, or 30 μM 22(S)-hydroxycholesterol in the presence of 50 μg/ml cyclohexamide in DMEM F12 media supplemented with 10% lipid-free serum for 18 hours.
Total RNA was then prepared using the Trizol method. Electrophoresis and Northern blot analysis were performed using the NorthernMax™ system (Ambion). Ribonucleotide probes were used to identify RNA transcripts.

LXRα = biological target: T1, LXRα (Homo sapiens, UniProt Q13133); details: SPA
T1 sequence (Q13133 1-447): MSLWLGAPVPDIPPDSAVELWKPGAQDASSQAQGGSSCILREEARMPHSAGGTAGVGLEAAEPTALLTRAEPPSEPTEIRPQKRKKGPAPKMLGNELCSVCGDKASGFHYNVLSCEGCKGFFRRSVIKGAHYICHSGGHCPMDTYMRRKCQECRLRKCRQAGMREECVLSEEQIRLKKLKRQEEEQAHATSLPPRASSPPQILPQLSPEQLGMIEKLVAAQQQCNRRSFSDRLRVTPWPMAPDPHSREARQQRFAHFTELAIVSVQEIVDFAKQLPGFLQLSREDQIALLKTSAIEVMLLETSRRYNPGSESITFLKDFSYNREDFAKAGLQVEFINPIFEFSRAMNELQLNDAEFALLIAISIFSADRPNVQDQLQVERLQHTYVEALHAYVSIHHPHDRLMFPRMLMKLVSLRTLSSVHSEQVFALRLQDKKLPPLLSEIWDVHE

[3] = biological target: T2, LXRα ligand-binding domain (Homo sapiens, UniProt Q13133); experiment: biochemical
T2 sequence (Q13133 209-447 limits assumed): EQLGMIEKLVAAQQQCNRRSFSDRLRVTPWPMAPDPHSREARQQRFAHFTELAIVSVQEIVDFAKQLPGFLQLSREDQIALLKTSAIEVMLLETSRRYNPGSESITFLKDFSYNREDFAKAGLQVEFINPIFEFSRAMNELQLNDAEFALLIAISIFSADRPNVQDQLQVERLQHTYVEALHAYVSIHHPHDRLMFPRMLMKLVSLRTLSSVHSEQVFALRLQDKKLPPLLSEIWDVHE

HepG2 cells [4] = experiment: Northern blot analysis of T0314407-dosed HepG2 cells with and without cycloheximide; format: cell-based; details: HepG2, with 50 μg/mL cycloheximide, 18 h
Protocol: FIG. 9. Northern blot analysis. Total RNA was isolated from the tissues indicated from mice (A,B,C) and hamsters (D). The numerical data shown with each figure represents the fold increase (+) or decrease (−) of expression relative to corresponding vehicle-treated controls. (E) HepG2 cells were incubated in culture media with or without cycloheximide (cyclohex). For the Northern blot analysis from cycloheximide-treated HepG2 cells, tissue cultures were incubated in cell culture media with 10% lipid-deficient serum with or without 50 μg/mL cycloheximide. T0314407 was added after 30 min of cycloheximide treatment, cells were harvested 18 h later, and total RNA was extracted as described.

[5] = HepG2, presence and absence of 50 μg/ml cyclohexamide, 18 hours

Row | SMILES | expression of SREBP-2 (HepG2 cells [1]; HepG2, 18 hours) | expression of negative control GAPDH (HepG2 cells [1]; HepG2, 18 hours) | expression of SREBP-1 mRNA (HepG2 cells [1]; [5]) | expression of fatty acid synthase (HepG2 cells [1]; [5]) | expression of GAPDH [2] | expression of SREBP-2 [2] | SREBP-1 expression ([2]; all three cell lines) | competition with binding of radiolabeled T0314407 to LXRα (LXRα) | EC50 [3] | agonist-mediated increase in levels of FAS mRNA (HepG2 cells [4]) | induction of SREBP-1 gene expression (HepG2 cells [4])
1 | C[C@H](CC[C@@H]1OC1(C)C)[C@H]1CC[C@H]2[C@@H]3CC=C4C[C@@H](O)CC[C@]4(C)[C@H]3CC[C@]12C [24,25-epoxycholesterol, 24(S),25-epoxycholesterol] | not affected | not affected | stimulated; also recorded: activates | stimulated | not significantly enhanced | not significantly enhanced | activates | competed | 300 nM |  | 
2 | CN(c1ccc(C(O)(C(F)(F)F)C(F)(F)F)cc1)S(=O)(=O)c1ccccc1 [T0314407, N-methyl-N-[4-(2,2,2-trifluoro-1-hydroxy-1-trifluoromethyl-ethyl)-phenyl]-benzenesulfonamide] |  |  |  |  |  |  |  |  |  | arrested | persisted
